Assay results published in PubChem BioAssay AID624281 (Broad Institute, 2012).
The source made the active and inactive calls. The rule behind the calls is not given here.

Test system: not listed separately
Assay: Light production inducers in absence of autoinducers, V. cholerae DH231, dose response (AID 624281)
Settings: V. cholerae DH231 (ΔcqsS ΔluxS) lux bioluminescence, 6 h; at 35 µM (top of the series)
In the case of `CCCn1nnnc1NCc1ccccc1Cl`, the luminescence activation is reported as -4.59% (inactive).
For `CCn1nnc(NCc2ccc(C)cc2)n1`, the luminescence activation was 4.08% (inactive).
With `CCOc1ccc(Nc2ccc3nonc3c2[N+](=O)[O-])cc1` the luminescence activation was -40.9% (inactive).
For `Cc1ccc(OCCNC(=O)c2cccc(C)c2)cc1`, the luminescence activation was -33.1% (inactive).
With `CCCn1nnnc1NCc1ccc(C(C)C)cc1` the luminescence activation was -30.3% (inactive).
In the case of `CCC(C)NC(=O)Cc1ccc(-c2ccccc2)cc1` (stereo not given), the luminescence activation is reported as -15.3% (inactive).
With `CCCn1nnnc1NCc1ccc(N(CC)CC)cc1` the luminescence activation was -19.9% (inactive).
In the case of `O=c1ncn(-c2cccc(Cl)c2)c2ccccc12`, the luminescence activation is reported as 14.1% (inactive).
In the case of `CCn1c(CC(=O)Nc2cccc(Cl)c2Cl)nnc1SCCOc1ccc(OC)cc1`, the luminescence activation is reported as -63.2% (inactive).
For `COc1ccc(Cl)cc1NC(=O)COC(=O)c1ccc(C)o1`, the luminescence activation was -3.04% (inactive).
For `CCCn1nnnc1NCc1ccc(N2CCCC2)cc1`, the luminescence activation was -14% (inactive).
In the case of `COc1ccccc1NC(=O)COC(=O)c1ccc(C)cc1`, the luminescence activation is reported as 8.61% (inactive).
For `COc1ccccc1NC(=O)COC(=O)c1oc2ccccc2c1C`, the luminescence activation was -6.24% (inactive).
With `CCn1nnnc1NCc1ccc(N2CCCC2)cc1` the luminescence activation was -52.4% (inactive).
With `O=C(Cc1ccc(-c2ccccc2)cc1)NC1CCCC1` the luminescence activation was -8.42% (inactive).
In the case of `Cc1ccc(CC(=O)NC2CCCC2)cc1`, the luminescence activation is reported as 0.807% (inactive).
In the case of `Cc1c(Cl)cccc1-n1cnc(=O)c2ccccc21`, the luminescence activation is reported as -4.11% (inactive).

Test system: V. cholerae DH231 (ΔcqsS ΔluxS) lux bioluminescence, 6 h
Assay: as above
Settings: not given
In the case of `COc1ccccc1NC(=O)COC(=O)c1cc2c(s1)CCC2`, the AC40 is reported as > 35000 nM (inactive).
For `O=C(Nc1nnc(-c2ccc3c(c2)OCCO3)o1)C1CCCCC1`, the AC40 was 883 nM.
In the case of `Cc1ccc2cc3c(NC(=O)c4ccco4)nn(C)c3nc2c1`, the AC40 is reported as 2030 nM.
